Laboratory results reported in publication PMC6301270 (MedChemComm, 2018).

system: T.b. brucei (strain 427) bloodstream form parasites; test: T.b. brucei single concentration screen (10 μM); conditions: Trypanosoma brucei, read-out: T.b.brucei % viability (10 µM)

Row | Structure (SMILES) | viability at 10 µM
1 | CCOc1ccccc1C(=O)Nc1cccc(-c2nc3ncccn3c2C)c1 [MMV019790, CCOc1ccccc1C(=O)Nc2cccc(c2)c3nc4ncccn4c3C] | 103%
2 | Cc1ccc2cc(C3NC(=O)c4ccccc4N3)c(Cl)nc2c1 (stereo not shown) [MMV019807, Cc1ccc2cc(C3NC(=O)c4ccccc4N3)c(Cl)nc2c1] | 113%
3 | O=C(Nc1ccnc(-c2cccnc2)n1)c1cc(C(F)(F)F)cc(C(F)(F)F)c1 [MMV019838, FC(F)(F)c1cc(cc(c1)C(F)(F)F)C(=O)Nc2ccnc(n2)c3cccnc3] | 106%
4 | Cc1nn(C)cc1C(C)Nc1nncc(-c2ccc(C(F)(F)F)cc2)n1 (stereo not shown) [MMV019993, CC(Nc1nncc(n1)c2ccc(cc2)C(F)(F)F)c3cn(C)nc3C] | 104%
5 | COc1cccc(CC(=O)N2CCC(n3c(C)nc4ccc(F)cc43)CC2)c1 [MMV020081, COc1cccc(CC(=O)N2CCC(CC2)n3c(C)nc4ccc(F)cc34)c1] | 99%
6 | CC1CC1C(=O)NC1CCN(CC2(c3ccccc3)CCCCC2)CC1 (stereo not shown) [MMV020120, CC1CC1C(=O)NC2CCN(CC3(CCCCC3)c4ccccc4)CC2] | 109%
7 | CNC(=O)c1cc(S(=O)(=O)N2CCN(c3ccccn3)CC2)cs1 [MMV020136, CNC(=O)c1cc(cs1)S(=O)(=O)N2CCN(CC2)c3ccccn3] | 97%
8 | Cc1cc(C(=O)Nc2ccc(-c3ccccc3)cc2)no1 [MMV020152, Cc1onc(c1)C(=O)Nc2ccc(cc2)c3ccccc3] | 85%
9 | CC(C)NCC(=O)Nc1cccc(C(=O)Nc2cccc(C(F)(F)F)c2)c1 [MMV020165, CC(C)NCC(=O)Nc1cccc(c1)C(=O)Nc2cccc(c2)C(F)(F)F] | 107%
10 | Cc1ccc(NC(=O)c2cc(S(=O)(=O)NC(C)(C)C)ccc2C)nc1 [MMV020289, Cc1ccc(NC(=O)c2cc(ccc2C)S(=O)(=O)NC(C)(C)C)nc1] | 93%
11 | CC(C(=O)N1CCCC1)N1CCN(S(=O)(=O)c2ccc(C(C)(C)C)cc2)CC1 (stereo not shown) [MMV020291, CC(N1CCN(CC1)S(=O)(=O)c2ccc(cc2)C(C)(C)C)C(=O)N3CCCC3] | 95%
12 | Cc1nnc(NC(=O)c2cn(-c3ccccc3)nc2-c2ccccc2C)o1 [MMV020320, Cc1oc(NC(=O)c2cn(nc2c3ccccc3C)c4ccccc4)nn1] | 46%
13 | COc1ccccc1C(C)NCC(=O)Nc1cc(C(F)(F)F)ccc1Cl (stereo not shown) [MMV020321, COc1ccccc1C(C)NCC(=O)Nc2cc(ccc2Cl)C(F)(F)F] | 106%
14 | CC1CCCN(C(=O)C(C)Nc2cc(Cl)ccc2N2CCOCC2)C1 (stereo not shown) [MMV020388, CC(Nc1cc(Cl)ccc1N2CCOCC2)C(=O)N3CCCC(C)C3] | 95%
15 | Cc1ccc(Oc2ccc(NC(=O)CNc3ccccc3N3CCCC3=O)cc2)cc1 [MMV020512, Cc1ccc(Oc2ccc(NC(=O)CNc3ccccc3N4CCCC4=O)cc2)cc1] | 95%
16 | COc1ccccc1CNC(=O)c1cc(C2CC2)nc2c1cnn2C(C)C [MMV020517, COc1ccccc1CNC(=O)c2cc(nc3c2cnn3C(C)C)C4CC4] | 93%
17 | Cc1cc2ccccc2n1CC(=O)N1CC(C(=O)N2CCCCC2)Oc2ccccc21 (stereo not shown) [MMV020520, Cc1cc2ccccc2n1CC(=O)N3CC(Oc4ccccc34)C(=O)N5CCCCC5] | 69%
18 | O=C(NC1CC1)c1ccc(N2CCOc3ccc(Cl)cc32)s1 [MMV020537, Clc1ccc2OCCN(c3ccc(s3)C(=O)NC4CC4)c2c1] | 97%
19 | CC(C)C(NC(=O)Cc1cccc2ccccc12)C(=O)Nc1cccc(C#N)c1 (stereo not shown) [MMV020591, CC(C)C(NC(=O)Cc1cccc2ccccc12)C(=O)Nc3cccc(c3)C#N] | 93%
20 | Cc1noc(C)c1C(=O)N1CCCC(c2[nH]c3c(C)cccc3c2-c2ccncc2)C1 (stereo not shown) [MMV020623, Cc1onc(C)c1C(=O)N2CCCC(C2)c3[nH]c4c(C)cccc4c3c5ccncc5] | 78%
21 | COc1ccc(-c2cncc3ccc(C(=O)NCCCn4ccnc4)nc23)cc1 [MMV020670, COc1ccc(cc1)c2cncc3ccc(nc23)C(=O)NCCCn4ccnc4] | 51%
22 | COc1ccc(Cl)cc1NC(=O)CN(C)C(=O)c1cnn(-c2ccccc2)n1 [MMV020710, COc1ccc(Cl)cc1NC(=O)CN(C)C(=O)c2cnn(n2)c3ccccc3] | 103%
23 | CC(C)(C)c1cc(C(=O)Nc2cccnc2)cc(C(=O)Nc2cccnc2)c1 [MMV020982, CC(C)(C)c1cc(cc(c1)C(=O)Nc2cccnc2)C(=O)Nc3cccnc3] | 83%
24 | CO/C=C(/C(=O)OC)c1ccccc1Oc1cc(Oc2ccccc2C#N)ncn1 [MMV021057, CO\C=C(\C(=O)OC)/c1ccccc1Oc2cc(Oc3ccccc3C#N)ncn2] | 103%
25 | Cc1cc(NCC(C)C)c2n[nH]c(-c3ccccc3)c2n1 [MMV021375, CC(C)CNc1cc(nc2c([nH]nc12)-c1ccccc1)C] | 64%
26 | Cc1cc(NCCc2ccccc2)nc(NC(=N)Nc2ccc(Cl)cc2)n1 [MMV021660, Cc1cc(NCCc2ccccc2)nc(NC(=N)Nc3ccc(Cl)cc3)n1] | 47%
27 | CCN(CC)CCCN1CCN(C(=O)c2cccc(-c3noc(C(F)(F)F)n3)c2)CC1 [MMV022236, CCN(CC)CCCN1CCN(CC1)C(=O)c2cccc(c2)c3noc(n3)C(F)(F)F] | 103%
28 | c1ccc2c(c1)CN(CC1CC1)CC1(CCN(Cc3c[nH]c4cnccc34)CC1)O2 [MMV023183, C(C1CC1)N2Cc3ccccc3OC4(CCN(Cc5c[nH]c6cnccc56)CC4)C2] | 93%

Row | Structure (SMILES) | viability at 10 µM
29 | Cc1nc(-c2cccc(NCc3ccccc3)c2)[nH]c1C [MMV023227, Cc1nc([nH]c1C)c2cccc(NCc3ccccc3)c2] | 102%
30 | Nc1ncc(-c2cn[nH]c2)cc1-c1nc2cc(Cl)cnc2[nH]1 [MMV023370, Nc1ncc(cc1c2nc3cc(Cl)cnc3[nH]2)c4cn[nH]c4] | 88%
31 | O=C(NC1CCN(c2ccnc3ccccc23)C1)c1cccc(C(F)(F)F)c1 (stereo not shown) [MMV023388, FC(F)(F)c1cccc(c1)C(=O)NC2CCN(C2)c3ccnc4ccccc34] | 78%
32 | NS(=O)(=O)c1cccc(-c2ccc3ncc(N4CCOCC4)nc3c2)c1 [MMV023860, NS(=O)(=O)c1cccc(c1)c2ccc3ncc(nc3c2)N4CCOCC4] | 110%
33 | CC(C)(C)c1cc(C(=O)N2CCN(c3nccnc3C#N)CC2)n(Cc2ccccc2)n1 [MMV023949, CC(C)(C)c1cc(C(=O)N2CCN(CC2)c3nccnc3C#N)n(Cc4ccccc4)n1] | 115%
34 | O=C(Nc1cccc(-c2ccc(NCCCN3CCCC3)nc2)c1)c1ccccc1 [MMV023953, O=C(Nc1cccc(c1)c2ccc(NCCCN3CCCC3)nc2)c4ccccc4] | 57%
35 | c1cncc(NCc2ccc(-c3cc4ccncc4cc3OC3CCNCC3)s2)c1 [MMV023969, C(Nc1cccnc1)c2ccc(s2)c3cc4ccncc4cc3OC5CCNCC5] | 79%
36 | COc1ccc(-c2cnc3ccc(N4CCCC4)nn23)cc1OC [MMV023985, COc1ccc(cc1OC)c2cnc3ccc(nn23)N4CCCC4] | 91%
37 | NS(=O)(=O)c1cncc(-c2ccc3nccc(-c4cn[nH]c4)c3n2)c1 [MMV024101, NS(=O)(=O)c1cncc(c1)c2ccc3nccc(c4cn[nH]c4)c3n2] | 36%
38 | Cc1ccc(S(=O)(=O)n2cc(-c3ccnc(N)c3)c3cc(Br)cnc32)cc1 [MMV024114, Cc1ccc(cc1)S(=O)(=O)n2cc(c3ccnc(N)c3)c4cc(Br)cnc24] | 52%
39 | CN(C)CCNC(=O)N1CCCN(c2ncnc3cc(-c4ccccc4)sc23)CC1 [MMV024195, CN(C)CCNC(=O)N1CCCN(CC1)c2ncnc3cc(sc23)c4ccccc4] | 79%
40 | O=C(NC1CC1)c1ccc(N2CCC(Cc3ccccc3)CC2)nc1 [MMV024397, O=C(NC1CC1)c2ccc(nc2)N3CCC(Cc4ccccc4)CC3] | 72%
41 | O=C(Nc1cccc(Cl)c1)c1cnc(N2CCN(c3ccncc3)CC2)c(Cl)c1 [MMV024406, Clc1cccc(NC(=O)c2cnc(N3CCN(CC3)c4ccncc4)c(Cl)c2)c1] | 63%
42 | CN(C(=O)c1cc2c(-c3cncnc3)cccc2[nH]1)c1ccccc1 [MMV024443, CN(C(=O)c1cc2c(cccc2[nH]1)c3cncnc3)c4ccccc4] | 59%
43 | Cc1cccc(C(=O)Nc2ccnc(N(C)C3CCN(CC(C)C)CC3)c2)c1 [MMV024829, CC(C)CN1CCC(CC1)N(C)c2cc(NC(=O)c3cccc(C)c3)ccn2] | 56%
44 | O=C(Nc1ccc(N2CCNCC2)nc1)c1oc(-c2ccccc2)nc1C(F)(F)F [MMV024937, FC(F)(F)c1nc(oc1C(=O)Nc2ccc(nc2)N3CCNCC3)c4ccccc4] | 77%
45 | CS(=O)(=O)c1cccc(-c2cnc3[nH]cc(-c4ccc(CCC(=O)O)cc4)c3c2)c1 [MMV026020, CS(=O)(=O)c1cccc(c1)c2cnc3[nH]cc(c4ccc(CCC(=O)O)cc4)c3c2] | 61%
46 | Nc1nccc2ccc(Oc3ccncc3)cc12 [MMV026313, Nc1nccc2ccc(Oc3ccncc3)cc12] | 97%
47 | CCn1ncc2c(NC3CCOCC3)c(CNC(=O)c3ccnn3C)c(C)nc21 [MMV026356, CCn1ncc2c(NC3CCOCC3)c(CNC(=O)c4ccnn4C)c(C)nc12] | 80%
48 | OCc1ccc(-c2cncc(Nc3cccc(Cl)c3)c2)cc1 [MMV026468, OCc1ccc(cc1)c2cncc(Nc3cccc(Cl)c3)c2] | 88%
49 | CC(C)(C)CN1C(=O)C(c2ccccc2)(c2ccccc2)N=C1N [MMV026550, CC(C)(C)CN1C(=NC(C1=O)(c2ccccc2)c3ccccc3)N] | 104%
50 | CC(C)(CN)c1nc(-c2ccc(Cl)c(O)c2)c(-c2ccnc(N)n2)[nH]1 [MMV030734, CC(C)(CN)c1nc(c2ccc(Cl)c(O)c2)c([nH]1)c3ccnc(N)n3] | 33%
51 | CNC(=O)C1Cc2c([nH]c3cc(Cl)ccc23)C2(CCN(CCc3ccccc3)CC2)N1 (stereo not shown) [MMV031011, CNC(=O)C1Cc2c([nH]c3cc(Cl)ccc23)C4(CCN(CCc5ccccc5)CC4)N1] | 106%
52 | FC(F)(F)c1cccc(-c2nc3c(NCc4ccncc4)nccc3[nH]2)c1 [MMV032967, FC(F)(F)c1cccc(c1)c2nc3c(NCc4ccncc4)nccc3[nH]2] | 79%
53 | O=C1COCc2ccc(Br)cc2N1Cc1ccc(C(F)(F)F)cc1 [MMV032995, FC(F)(F)c1ccc(CN2C(=O)COCc3ccc(Br)cc23)cc1] | 113%
54 | c1ccc(Oc2ccc(-c3cc(N4CCOCC4)[nH]n3)cc2)cc1 [MMV045105, C1CN(CCO1)c2cc(n[nH]2)c3ccc(Oc4ccccc4)cc3] | 33%
55 | COc1cc(C(F)(F)F)nc2ccc(C)c(N)c12 [MMV047015, COc1cc(nc2ccc(C)c(N)c12)C(F)(F)F] | 113%
